One data set is described as follows: Critical micelle concentration (CMC) by Wilhelmy plate method, K100C Force Tensiometer. The format is physicochemical. The following applies: 25° C., pH 3. The method, then: As a parameter for the surfactant properties of the novel amine-N-oxide compounds, as usual, the critical micelle concentration (CMC), i.e. the concentration of the protonated or cationic form of the surfactants at which micelles can form was used and was determined using a K100C Force Tensiometer from Krüss Scientific according to the Wilhelmy plate method at 25° C. and pH 3. For comparison, dodecyldimethylamine N-oxide (“C1”) was measured under the same conditions.
For the molecule `CCCCCCCCOc1c(C[N+](C)(C)[O-])cc(CC)cc1OC` [Compound 1, N,N-dimethyl-1-(5-ethyl-3-methoxy-2-octyloxyphenyl)methanamine N-oxide], the CMC value stood at 4.1 mM.

The same data set, now with this note: critical micelle concentration of the protonated or cationic form; Wilhelmy plate method, 25° C., pH 3.
`CCCCCCCCCCCCCCOc1c(C[N+](C)(C)[O-])cc(CC)cc1OC` [Compound 4, N,N-dimethyl-1-(5-ethyl-3-methoxy-2-tetradecyloxyphenyl)methanamine N-oxide] came in with a CMC of 5.2 mmol/L. Still for that read-out and setting: with `CCCCCCCCCCCCOc1c(C[N+]2([O-])CCCCC2)cc(CC)cc1OC` [Compound 8, 1-(2-dodecyloxy-5-ethyl-3-methoxybenzyl)piperidine-1-oxide] the figure was 130 mmol/L.

`CCCCCCCCCCCCCCCCOc1c(C[N+](C)(C)[O-])cc(CC)cc1C[N+](C)(C)[O-]` [Compound 14, 1,1′-(5-ethyl-2-hexadecyloxy-1,3-phenylene)-bis(N,N-dimethylmethanamine N-oxide)] showed a CMC of 75 mmol/L.

Molecule `CCCCCCCCCCOc1c(C[N+](C)(C)[O-])cc(CC)cc1OC` [Compound 2, N,N-dimethyl-1-(2-decyloxy-5-ethyl-3-methoxyphenyl)methanamine N-oxide] showed a CMC of 570 mmol/L. The molecule `CCCCCCCCCCCCOc1c(C[N+](C)(C)[O-])cc(CC)cc1C[N+](C)(C)[O-]` [Compound 13, 1,1′-(2-dodecyloxy-5-ethyl-1,3-phenylene)-bis(N,N-dimethylmethanamine N-oxide)] gave a CMC of 190 mmol/L.

`CCCCCCCCCCCCCCCCOc1c(C[N+](C)(C)[O-])cc(CC)cc1OC` [Compound 5, N,N-dimethyl-1-(5-ethyl-2-hexadecyloxy-3-methoxyphenyl)methanamine N-oxide] registered a CMC of 4.0 mmol/L. On the same count and under the same terms, with `CCCCCCCCCCCCCCCCCCOc1c(C[N+](C)(C)[O-])cc(CC)cc1OC` [Compound 6, N,N-dimethyl-1-(5-ethyl-3-methoxy-2-octadecyloxyphenyl)methanamine N-oxide] the figure was 1.3 mmol/L; with `CCCCCCCCCCCC[N+](C)(C)[O-]` [Compound C1, dodecyldimethylamine N-oxide, reference compound], 4200 mmol/L; with `CCCCCCCCCCCCOc1c(C[N+]2([O-])CCCC2)cc(CC)cc1OC` [Compound 7, 1-(2-dodecyloxy-5-ethyl-3-methoxybenzyl)pyrrolidine-1-oxide], 36 mmol/L. Still for that read-out and setting: the same measure for `CCCCCCCCCCCCOc1c(C[N+](C)(C)[O-])cc(CC)cc1OC` [Compound 3, N,N-dimethyl-1-(2-dodecyloxy-5-ethyl-3-methoxyphenyl)methanamine N-oxide]: 89 mmol/L; for `CCCCCCCCCCCCCCCCCCOc1c(C[N+](C)(C)[O-])cc(CC)cc1C[N+](C)(C)[O-]` [Compound 15, 1,1′-(5-ethyl-2-octadecyloxy-1,3-phenylene)-bis(N,N-dimethylmethanamine N-oxide)]: 29 mmol/L.

The molecule `CCCCCCCCOc1c(C[N+](C)(C)[O-])cc(CC)cc1OC` [Compound 1, N,N-dimethyl-1-(5-ethyl-3-methoxy-2-octyloxyphenyl)methanamine N-oxide] showed a CMC of 4.1 mmol/L.

The same data set, now with this note: second value of the cell, for (3)*; asterisk not explained; otherwise 25° C., pH 3.
As to `CCCCCCCCCCCCOc1c(C[N+](C)(C)[O-])cc(CC)cc1OC` [Compound 3, N,N-dimethyl-1-(2-dodecyloxy-5-ethyl-3-methoxyphenyl)methanamine N-oxide], the “CMC, value marked (3)*” value was 19 mmol/L.

For the origin of these results see patent US20240383840A1, “AMINE-N-OXIDE COMPOUNDS” (Karl Franzens Universität Graz, priority 2021, published 2024).
